According to publication PMC3095715 (Chemical biology & drug design, 2011):

Biological target: human C3 (Homo sapiens, UniProt P01024)
Experiment: Surface plasmon resonance
Format: binding
Conditions: SPR

Sequence of human C3 (P01024 23-1663): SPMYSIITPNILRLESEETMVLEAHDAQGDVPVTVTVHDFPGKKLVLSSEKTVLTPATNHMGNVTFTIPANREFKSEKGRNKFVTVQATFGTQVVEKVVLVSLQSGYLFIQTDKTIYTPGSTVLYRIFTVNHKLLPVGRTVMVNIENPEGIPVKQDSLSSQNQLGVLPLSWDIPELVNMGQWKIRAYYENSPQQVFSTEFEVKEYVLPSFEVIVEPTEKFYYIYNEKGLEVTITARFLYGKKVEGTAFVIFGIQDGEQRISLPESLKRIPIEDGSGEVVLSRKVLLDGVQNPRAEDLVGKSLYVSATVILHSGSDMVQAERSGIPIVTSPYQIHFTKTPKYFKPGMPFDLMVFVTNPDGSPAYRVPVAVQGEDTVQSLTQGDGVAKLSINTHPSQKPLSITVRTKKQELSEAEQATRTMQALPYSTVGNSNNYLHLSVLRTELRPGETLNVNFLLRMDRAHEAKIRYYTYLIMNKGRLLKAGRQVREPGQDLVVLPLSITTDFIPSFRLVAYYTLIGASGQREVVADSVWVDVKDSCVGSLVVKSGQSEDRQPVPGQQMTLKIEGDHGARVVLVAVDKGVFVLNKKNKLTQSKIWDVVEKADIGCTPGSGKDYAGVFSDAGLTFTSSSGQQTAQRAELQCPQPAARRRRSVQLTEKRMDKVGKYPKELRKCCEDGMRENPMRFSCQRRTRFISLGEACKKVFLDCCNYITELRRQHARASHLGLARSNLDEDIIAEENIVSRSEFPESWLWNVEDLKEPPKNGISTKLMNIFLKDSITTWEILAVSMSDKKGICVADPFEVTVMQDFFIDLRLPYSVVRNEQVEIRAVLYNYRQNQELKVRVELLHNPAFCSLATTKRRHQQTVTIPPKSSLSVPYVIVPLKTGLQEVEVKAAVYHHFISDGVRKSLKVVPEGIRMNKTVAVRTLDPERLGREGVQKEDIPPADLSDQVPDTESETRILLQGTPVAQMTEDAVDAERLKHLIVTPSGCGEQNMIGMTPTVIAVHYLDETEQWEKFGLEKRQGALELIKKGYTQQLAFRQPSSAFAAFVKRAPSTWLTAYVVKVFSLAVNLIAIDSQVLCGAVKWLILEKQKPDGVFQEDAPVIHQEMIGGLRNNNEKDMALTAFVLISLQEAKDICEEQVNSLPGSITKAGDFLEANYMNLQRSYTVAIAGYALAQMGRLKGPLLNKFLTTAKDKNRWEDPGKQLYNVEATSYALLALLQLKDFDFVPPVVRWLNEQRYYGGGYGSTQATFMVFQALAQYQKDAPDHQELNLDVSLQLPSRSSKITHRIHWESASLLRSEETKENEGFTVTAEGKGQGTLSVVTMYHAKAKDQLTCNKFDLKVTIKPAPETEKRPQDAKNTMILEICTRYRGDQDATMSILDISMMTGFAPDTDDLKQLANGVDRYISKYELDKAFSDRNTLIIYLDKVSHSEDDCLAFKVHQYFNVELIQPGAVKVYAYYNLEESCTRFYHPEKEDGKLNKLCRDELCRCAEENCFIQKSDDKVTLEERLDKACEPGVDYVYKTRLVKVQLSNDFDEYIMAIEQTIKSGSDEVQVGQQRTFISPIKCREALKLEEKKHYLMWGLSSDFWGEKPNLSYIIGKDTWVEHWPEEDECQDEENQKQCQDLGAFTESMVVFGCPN

- Binding to C3 (result in words): not to bind to C3
Substance: Ac-W[CVWQDWGAWRC]W-(PEG)8-K-(biotin)-NH2 (disulfide) [Peptide X]
